Measured values as given in ChEMBL document CHEMBL1909046, “DrugMatrix in vitro pharmacology data”.

Columns and labels:
[1] = DRUGMATRIX: Phosphodiesterase PDE3 enzyme inhibition (substrate: [3H]cAMP + cAMP); format: tissue-based, Homo sapiens; details: platelet; Not Active = under 50% inhibition at 10 µM
[2] = target: T1, B2 bradykinin receptor (Homo sapiens, UniProt P30411); format: cell membranes, Membrane; details: chem-1; also: in other assays of this panel Not Active means under 50% inhibition at 10 µM
T1 sequence (P30411 whole entry): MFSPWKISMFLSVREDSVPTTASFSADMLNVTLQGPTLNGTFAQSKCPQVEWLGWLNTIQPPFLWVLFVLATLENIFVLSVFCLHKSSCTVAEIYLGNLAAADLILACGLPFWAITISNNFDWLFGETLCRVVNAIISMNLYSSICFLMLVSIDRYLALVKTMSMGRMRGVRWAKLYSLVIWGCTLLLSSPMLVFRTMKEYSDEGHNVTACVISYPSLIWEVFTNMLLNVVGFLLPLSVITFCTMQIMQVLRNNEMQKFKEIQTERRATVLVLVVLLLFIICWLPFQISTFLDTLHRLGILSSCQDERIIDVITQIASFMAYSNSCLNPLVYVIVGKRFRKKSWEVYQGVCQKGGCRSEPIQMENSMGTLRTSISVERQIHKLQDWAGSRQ

[3] = target: T2, Alpha-1B adrenergic receptor (Rattus norvegicus, UniProt P15823); assay: DRUGMATRIX: Alpha-1B adrenergic receptor radioligand binding (ligand: prazosin); format: cell membranes, Wistar, Liver, Membrane; details: Not Active = under 50% inhibition at 10 µM
T2 sequence (P15823 whole entry): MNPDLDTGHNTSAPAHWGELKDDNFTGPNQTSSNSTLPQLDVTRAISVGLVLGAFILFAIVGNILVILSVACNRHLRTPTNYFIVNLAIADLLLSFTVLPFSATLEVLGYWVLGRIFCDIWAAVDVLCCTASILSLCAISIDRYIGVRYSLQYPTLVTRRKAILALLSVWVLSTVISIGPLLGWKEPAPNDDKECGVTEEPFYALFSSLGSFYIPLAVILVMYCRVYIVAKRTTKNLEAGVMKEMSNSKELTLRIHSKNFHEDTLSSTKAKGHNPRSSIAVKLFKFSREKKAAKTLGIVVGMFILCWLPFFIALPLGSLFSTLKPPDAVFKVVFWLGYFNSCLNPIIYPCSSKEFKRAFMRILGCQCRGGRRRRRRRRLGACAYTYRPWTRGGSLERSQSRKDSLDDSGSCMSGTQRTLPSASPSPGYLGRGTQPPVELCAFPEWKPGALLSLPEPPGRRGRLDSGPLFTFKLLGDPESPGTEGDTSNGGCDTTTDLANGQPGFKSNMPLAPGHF

[4] = target: Beta-3 adrenergic receptor (Homo sapiens, UniProt P13945); assay: DRUGMATRIX: Adrenergic beta3 radioligand binding (ligand: [125I] Cyanopindolol); format: cell membranes, Membrane; details: hek293; Not Active = under 50% inhibition at 10 µM
Sequence of Beta-3 adrenergic receptor (P13945 whole entry): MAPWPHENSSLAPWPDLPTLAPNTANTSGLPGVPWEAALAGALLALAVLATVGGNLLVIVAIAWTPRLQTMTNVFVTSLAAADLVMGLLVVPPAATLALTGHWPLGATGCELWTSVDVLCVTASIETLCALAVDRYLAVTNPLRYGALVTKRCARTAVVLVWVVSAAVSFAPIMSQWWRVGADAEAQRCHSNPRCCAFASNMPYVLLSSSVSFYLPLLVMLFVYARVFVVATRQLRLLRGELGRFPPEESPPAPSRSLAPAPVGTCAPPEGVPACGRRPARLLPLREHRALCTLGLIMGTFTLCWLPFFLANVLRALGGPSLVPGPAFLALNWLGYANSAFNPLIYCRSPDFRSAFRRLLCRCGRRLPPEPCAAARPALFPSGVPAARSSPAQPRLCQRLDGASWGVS

[5] = target: T3, Calcitonin receptor (Homo sapiens, UniProt P30988); format: cell membranes, Membrane; details: t47d; also: in other assays of this panel Not Active means under 50% inhibition at 10 µM
T3 sequence (P30988 whole entry): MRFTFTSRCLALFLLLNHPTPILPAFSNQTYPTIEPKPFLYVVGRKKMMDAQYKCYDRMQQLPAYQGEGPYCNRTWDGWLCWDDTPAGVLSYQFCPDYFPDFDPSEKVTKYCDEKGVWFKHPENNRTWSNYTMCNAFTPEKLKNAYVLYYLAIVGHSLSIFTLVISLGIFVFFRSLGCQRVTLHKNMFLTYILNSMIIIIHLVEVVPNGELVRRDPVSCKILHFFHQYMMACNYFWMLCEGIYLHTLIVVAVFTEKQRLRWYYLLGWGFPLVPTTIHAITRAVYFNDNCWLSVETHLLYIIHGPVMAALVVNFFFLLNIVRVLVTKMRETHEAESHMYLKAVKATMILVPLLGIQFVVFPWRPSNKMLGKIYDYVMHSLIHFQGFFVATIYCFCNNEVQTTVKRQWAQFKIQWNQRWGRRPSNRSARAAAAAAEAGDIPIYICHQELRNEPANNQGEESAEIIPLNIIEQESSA

[6] = DRUGMATRIX: Calcium Channel Type L, Dihydropyridine radioligand binding (ligand: [3H] Nitrendipine); format: cell membranes, Rattus norvegicus, Wistar, Cerebral cortex, Membrane; details: Not Active = under 50% inhibition at 10 µM
[7] = target: Cytochrome P450 2C9 (Homo sapiens, UniProt P11712); details: bti-tn-5b1-4; also: in other assays of this panel Not Active means under 50% inhibition at 10 µM
Sequence of Cytochrome P450 2C9 (P11712 whole entry): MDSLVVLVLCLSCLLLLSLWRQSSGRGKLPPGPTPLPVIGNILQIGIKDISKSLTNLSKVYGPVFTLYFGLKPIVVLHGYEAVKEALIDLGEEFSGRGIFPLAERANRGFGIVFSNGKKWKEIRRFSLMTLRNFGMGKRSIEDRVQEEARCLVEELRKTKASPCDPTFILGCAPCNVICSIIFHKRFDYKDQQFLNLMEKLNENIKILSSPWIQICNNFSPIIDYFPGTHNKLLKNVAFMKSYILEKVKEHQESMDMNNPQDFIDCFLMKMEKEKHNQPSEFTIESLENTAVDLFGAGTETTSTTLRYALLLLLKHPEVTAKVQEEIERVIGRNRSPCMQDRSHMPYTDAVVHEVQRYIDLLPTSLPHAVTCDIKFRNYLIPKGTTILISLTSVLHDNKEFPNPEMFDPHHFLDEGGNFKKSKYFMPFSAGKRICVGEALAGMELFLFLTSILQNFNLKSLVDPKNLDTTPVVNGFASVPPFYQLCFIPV

[8] = DRUGMATRIX: Tumor Necrosis Factor (TNF), Non-Selective radioligand binding (ligand: [125I] TNF-alpha); format: cell membranes, Membrane; details: u-937; Not Active = under 50% inhibition at 10 µM
[9] = target: Mitogen-activated protein kinase 3 (Homo sapiens, UniProt P27361); assay: DRUGMATRIX: Protein Serine/Threonine Kinase, ERK1 enzyme inhibition (substrate: Myelin Basic Protein); design: species or system Escherichia coli; details: Not Active = under 50% inhibition at 10 µM
Sequence of Mitogen-activated protein kinase 3 (P27361 whole entry): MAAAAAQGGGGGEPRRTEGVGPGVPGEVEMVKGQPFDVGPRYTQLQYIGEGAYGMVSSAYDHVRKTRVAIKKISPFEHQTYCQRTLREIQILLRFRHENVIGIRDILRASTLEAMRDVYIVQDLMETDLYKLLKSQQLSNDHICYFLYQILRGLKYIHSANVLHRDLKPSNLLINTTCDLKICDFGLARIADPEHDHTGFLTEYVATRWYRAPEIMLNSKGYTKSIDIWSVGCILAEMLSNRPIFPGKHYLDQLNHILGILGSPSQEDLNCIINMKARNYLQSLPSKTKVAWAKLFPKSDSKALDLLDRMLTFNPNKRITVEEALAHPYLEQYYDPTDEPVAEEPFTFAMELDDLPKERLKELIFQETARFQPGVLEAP

CC1(C)O[C@@H]2C[C@H]3[C@@H]4C[C@H](F)C5=CC(=O)CC[C@]5(C)[C@H]4[C@@H](O)C[C@]3(C)[C@]2(C(=O)CO)O1 [FLURANDRENOLIDE]
Not Active: IC50 [1] | Ki [1] | IC50 [2] | IC50 [3] | IC50 [4] | IC50 [5] | IC50 [6] | Ki [6] | IC50 [7] | Ki [7] | IC50 [8] | Ki [8] | IC50 [9]

Cc1ccc(S(=O)(=O)NC(=O)NN2CC3CCCC3C2)cc1 (stereo unspecified) [GLICLAZIDE]
Not Active: IC50 [1] | Ki [1] | IC50 [2] | IC50 [3] | IC50 [4] | IC50 [5] | IC50 [6] | Ki [6] | IC50 [7] | Ki [7] | IC50 [8] | Ki [8] | IC50 [9]

CC(C)Cc1ccc(C(C)C(=O)O)cc1 (stereo unspecified) [IBUPROFEN]
Not Active: IC50 [1] | Ki [1] | IC50 [2] | IC50 [3] | IC50 [4] | IC50 [5] | IC50 [6] | Ki [6] | IC50 [7] | Ki [7] | IC50 [8] | Ki [8] | IC50 [9]

COc1ccc2c(c1)c(CC(=O)O)c(C)n2C(=O)c1ccc(Cl)cc1 [INDOMETHACIN]
Not Active: IC50 [1] | Ki [1] | IC50 [2] | IC50 [3] | IC50 [4] | IC50 [5] | IC50 [6] | Ki [6] | IC50 [7] | Ki [7] | IC50 [8] | Ki [8] | IC50 [9]

CCc1c2c(nc3ccc(OC(=O)N4CCC(N5CCCCC5)CC4)cc13)-c1cc3c(c(=O)n1C2)COC(=O)[C@]3(O)CC [IRINOTECAN]
Not Active: IC50 [1] | Ki [1] | IC50 [2] | IC50 [3] | IC50 [4] | IC50 [5] | IC50 [6] | Ki [6] | IC50 [7] | Ki [7] | IC50 [8] | Ki [8] | IC50 [9]

CC(C(=O)O)c1cccc(C(=O)c2ccccc2)c1 (stereo unspecified) [KETOPROFEN]
Not Active: IC50 [1] | Ki [1] | IC50 [2] | IC50 [3] | IC50 [4] | IC50 [5] | IC50 [6] | Ki [6] | IC50 [7] | Ki [7] | IC50 [8] | Ki [8] | IC50 [9]

Nc1ccn([C@@H]2CS[C@H](CO)O2)c(=O)n1 [LAMIVUDINE]
Not Active: IC50 [1] | Ki [1] | IC50 [2] | IC50 [3] | IC50 [4] | IC50 [5] | IC50 [6] | Ki [6] | IC50 [7] | Ki [7] | IC50 [8] | Ki [8] | IC50 [9]

O=S(=O)([O-])CCS.[Na+] [MESNA]
Not Active: IC50 [1] | Ki [1] | IC50 [2] | IC50 [3] | IC50 [4] | IC50 [5] | IC50 [6] | Ki [6] | IC50 [7] | Ki [7] | IC50 [8] | Ki [8] | IC50 [9]

C#C[C@]1(O)CC[C@H]2[C@@H]3CCc4cc(OC)ccc4[C@H]3CC[C@@]21C [MESTRANOL]
Not Active: IC50 [1] | Ki [1] | IC50 [2] | IC50 [3] | IC50 [4] | IC50 [5] | IC50 [6] | Ki [6] | IC50 [7] | Ki [7] | IC50 [8] | Ki [8] | IC50 [9]

CC(=O)Nc1cccc(O)c1 [METACETAMOL]
Not Active: IC50 [1] | Ki [1] | IC50 [2] | IC50 [3] | IC50 [4] | IC50 [5] | IC50 [6] | Ki [6] | IC50 [7] | Ki [7] | IC50 [8] | Ki [8] | IC50 [9]

Cc1ncc([N+](=O)[O-])n1CCO [METRONIDAZOLE]
Not Active: IC50 [1] | Ki [1] | IC50 [2] | IC50 [3] | IC50 [4] | IC50 [5] | IC50 [6] | Ki [6] | IC50 [7] | Ki [7] | IC50 [8] | Ki [8] | IC50 [9]

CC(C)(C(=O)c1cccnc1)c1cccnc1 [METYRAPONE]
Not Active: IC50 [1] | Ki [1] | IC50 [2] | IC50 [3] | IC50 [4] | IC50 [5] | IC50 [6] | Ki [6] | IC50 [7] | Ki [7] | IC50 [8] | Ki [8] | IC50 [9]

CC(C)(Oc1ccc(C2CCCc3ccccc32)cc1)C(=O)O (stereo unspecified) [NAFENOPIN]
Not Active: IC50 [1] | Ki [1] | IC50 [2] | IC50 [3] | IC50 [4] | IC50 [5] | IC50 [6] | Ki [6] | IC50 [7] | Ki [7] | IC50 [8] | Ki [8] | IC50 [9]

CC(C)[C@H]1CC[C@H](C(=O)N[C@H](Cc2ccccc2)C(=O)O)CC1 [NATEGLINIDE]
Not Active: IC50 [1] | Ki [1] | IC50 [2] | IC50 [3] | IC50 [4] | IC50 [5] | IC50 [6] | Ki [6] | IC50 [7] | Ki [7] | IC50 [8] | Ki [8] | IC50 [9]

CCN[C@@H]1C[C@H](N)[C@@H](O[C@H]2OC(CN)=CC[C@H]2N)[C@H](O)[C@H]1O[C@H]1OC[C@](C)(O)[C@H](NC)[C@H]1O [NETILMICIN]
Not Active: IC50 [1] | Ki [1] | IC50 [2] | IC50 [3] | IC50 [4] | IC50 [5] | IC50 [6] | Ki [6] | IC50 [7] | Ki [7] | IC50 [8] | Ki [8] | IC50 [9]

C#C[C@]1(OC(C)=O)CC[C@H]2[C@@H]3CCC4=CC(=O)CC[C@@H]4[C@H]3CC[C@@]21C [NORETHINDRONE ACETATE]
Not Active: IC50 [1] | Ki [1] | IC50 [2] | IC50 [3] | IC50 [4] | IC50 [5] | IC50 [6] | Ki [6] | IC50 [7] | Ki [7] | IC50 [8] | Ki [8] | IC50 [9]

COc1ccc2[nH]c([S+]([O-])Cc3ncc(C)c(OC)c3C)nc2c1 (stereo unspecified) [OMEPRAZOLE]
Not Active: IC50 [1] | Ki [1] | IC50 [2] | IC50 [3] | IC50 [4] | IC50 [5] | IC50 [6] | Ki [6] | IC50 [7] | Ki [7] | IC50 [8] | Ki [8] | IC50 [9]
